In US20110065663A1, “ANTI-CANCER COMBINATION THERAPY” (Katholieke Universiteit Leuven, K.U. Leuven R&D, priority 2008, published 2011):
Like-named read-outs stand apart in the source and are kept apart here.

Key:
[1] = tested on: MCF-7/HYOR cell cultures; experiment: Nucleoside metabolism experiments, distribution of drug-derived radiolabel in MCF-7/HYOR cell cultures; assay type: cell-based, human; details: MCF-7/HYOR; for % of drug-derived radiolabel, In medium, Base / % of drug-derived radiolabel, In medium, Nucleoside / % of drug-derived radiolabel, In the cytosol of the cells, 5′-diphosphate / % of drug-derived radiolabel, In the cytosol of the cells, 5′-monophosphate / % of drug-derived radiolabel, In the cytosol of the cells, 5′-triphosphate / % of drug-derived radiolabel, In the cytosol of the cells, Nucleoside/nucleobase / % of drug-derived radiolabel, Incorporatio into DNA/RNA: 1 μCi, 16 h; for Increase of 5′-monophosphate levels in the presence of TPi: with versus without TPi
[2] = tested on: M. hyorhinis TP; experiment: TP activity in the medium of MCF-7/HYOR cell cultures (HPLC, conversion of nucleoside to free base); assay type: biochemical, Mycoplasma hyorhinis; details: 200 μM substrate, 37° C.
Procedure: The TP activity of M. hyorhinis and the conversion of dThd, FdUrd, 5′DFUR and TFT to thymine, 5FU, 5FU or TF-thymine respectively were measured by high-pressure liquid chromatography (HPLC) analysis. MCF-7 and MCF-7/HYOR cells were seeded at a density of 20,000 cells/cm^2 in DMEM with 10% FBS. Four days later, the medium was collected and cleared by centrifugation at 1,400 rpm. For some experiments, the medium of MCF-7/HYOR cells was filtered using a 0.1 μm micro filter (Acrodisc syringe filter, PALL Corporation, East Hills, N.Y.) to remove the mycoplasmas from the medium. 600 μl of the medium was incubated with 200 μM of substrate (dThd, 5′DFUR, TFT or FdUrd) at 37° C. in the presence or absence of 10 μM TPi. At different time points (i.e. 0, 15, 30, 60, 120 minutes and 16 hours), 100 μl aliquots were withdrawn, transferred to Eppendorf tubes and heated at 95° C. for 3 min. Next, the samples were rapidly cooled on ice, exposed for 20 min to 200 μl ice-cold methanol and cleared by centrifugation at 15,000 rpm for 15 minutes. As a positive control, an enzyme activity assay with E. coli TP (Sigma) was performed. For this reaction, 0.025 U of TP were incubated with 200 μM of substrate in TP-buffer (10 mM Tris-HCl, pH 7.6, 1 mM EDTA, 2 mM potassium phosphate and 150 mM NaCl) in a total volume of 600 μl. Aliquots of 100 μl were withdrawn from the reaction mixture at several time points and treated as described above. The nucleosides were separated from their nucleobases on a reversed-phase RP-8 column (Merck, Darmstadt, Germany) and quantified by HPLC analysis (Aliance 2690, Waters, Milford, Mass.). The separation was performed by a linear gradient from 100% buffer B (50 mM NaH2PO4 and 5 mM heptane sulfonic acid, pH 3.2), to 20% buffer B and 80% acetonitrile. […] UV-based detection of all nucleosides was performed at 267 nm.

[3] = tested on: MCF-7/HYOR cells; experiment: Tumor cell proliferation assay, M. hyorhinis-infected MCF-7 cells; assay type: cell-based, human; details: for Ratio (1)/(2) MCF-7/HYOR: IC50 in the absence of TPi to IC50 in the presence of TPi
Procedure: Mycoplasma hyorhinis (ATCC 17981) was obtained from the American Type Culture Collection (ATCC, Manassas, Va.). The freeze-dried bacteria were reconstituted by adding 1 ml of DMEM. […] The co-culture of MCF-7 cells and M. hyorhinis was maintained under the same conditions as the uninfected MCF-7 cells. […] The cells were incubated for another 4 days, trypsinized and counted by a Coulter counter (Analis, Suarlée, Belgium).

[4] = biological target: T1, E. coli TP (Escherichia coli, UniProt P07650); experiment: Enzyme activity assay with recombinant E. coli TP (positive control); assay type: biochemical; details: 0.025 U TP, 200 μM substrate
T1 construct: purchased Sigma
T1 sequence (P07650 whole entry): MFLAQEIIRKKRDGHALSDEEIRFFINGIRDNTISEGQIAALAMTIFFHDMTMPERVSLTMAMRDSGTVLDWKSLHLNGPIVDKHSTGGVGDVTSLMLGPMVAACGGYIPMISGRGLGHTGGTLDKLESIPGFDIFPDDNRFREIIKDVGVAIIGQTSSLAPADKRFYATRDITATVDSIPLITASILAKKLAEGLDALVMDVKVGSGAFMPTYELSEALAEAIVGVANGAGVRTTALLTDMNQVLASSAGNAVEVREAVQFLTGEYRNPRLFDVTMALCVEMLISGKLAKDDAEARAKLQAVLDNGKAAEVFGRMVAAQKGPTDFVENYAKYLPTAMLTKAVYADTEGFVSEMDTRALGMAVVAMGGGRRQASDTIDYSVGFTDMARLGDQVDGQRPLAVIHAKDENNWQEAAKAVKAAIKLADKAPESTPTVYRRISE
Procedure: The TP activity of M. hyorhinis and the conversion of dThd, FdUrd, 5′DFUR and TFT to thymine, 5FU, 5FU or TF-thymine respectively were measured by high-pressure liquid chromatography (HPLC) analysis. MCF-7 and MCF-7/HYOR cells were seeded at a density of 20,000 cells/cm^2 in DMEM with 10% FBS. Four days later, the medium was collected and cleared by centrifugation at 1,400 rpm. For some experiments, the medium of MCF-7/HYOR cells was filtered using a 0.1 μm micro filter (Acrodisc syringe filter, PALL Corporation, East Hills, N.Y.) to remove the mycoplasmas from the medium. 600 μl of the medium was incubated with 200 μM of substrate (dThd, 5′DFUR, TFT or FdUrd) at 37° C. in the presence or absence of 10 μM TPi. At different time points (i.e. 0, 15, 30, 60, 120 minutes and 16 hours), 100 μl aliquots were withdrawn, transferred to Eppendorf tubes and heated at 95° C. for 3 min. Next, the samples were rapidly cooled on ice, exposed for 20 min to 200 μl ice-cold methanol and cleared by centrifugation at 15,000 rpm for 15 minutes. As a positive control, an enzyme activity assay with E. coli TP (Sigma) was performed. For this reaction, 0.025 U of TP were incubated with 200 μM of substrate in TP-buffer (10 mM Tris-HCl, pH 7.6, 1 mM EDTA, 2 mM potassium phosphate and 150 mM NaCl) in a total volume of 600 μl. Aliquots of 100 μl were withdrawn from the reaction mixture at several time points and treated as described above. The nucleosides were separated from their nucleobases on a reversed-phase RP-8 column (Merck, Darmstadt, Germany) and quantified by HPLC analysis (Aliance 2690, Waters, Milford, Mass.). The separation was performed by a linear gradient from 100% buffer B (50 mM NaH2PO4 and 5 mM heptane sulfonic acid, pH 3.2), to 20% buffer B and 80% acetonitrile. Retention times of thymine and thymidine were respectively 5.1 and 10.8 minutes. UV-based detection of all nucleosides was performed at 267 nm.

Structure (SMILES): O=c1[nH]c(=O)n([C@H]2C[C@H](O)[C@@H](CO)O2)cc1F [FdUrd, 5-fluoro-2′-deoxyuridine]
- % of drug-derived radiolabel, In medium, Base [1]: 49.5%
- % of drug-derived radiolabel, In medium, Nucleoside [1]: 33.2%
- % of drug-derived radiolabel, In the cytosol of the cells, 5′-diphosphate [1]: 0.9%
- % of drug-derived radiolabel, In the cytosol of the cells, 5′-monophosphate [1]: 3.5%
- % of drug-derived radiolabel, In the cytosol of the cells, 5′-triphosphate [1]: 0.3%
- % of drug-derived radiolabel, In the cytosol of the cells, Nucleoside/nucleobase [1]: 11.6%
- % of drug-derived radiolabel, Incorporatio into DNA/RNA [1]: 1.0%
- Share incorporated into the nucleic acids in the presence of TPi [1]: almost no
- Increase of 5′-monophosphate levels in the presence of TPi [1]: 18 fold
- Percent conversion of nucleoside to the free pyrimidine base in MCF-7/HYOR medium ([2]; 2 hours): 43%
- Percent conversion of nucleoside to the free pyrimidine base in MCF-7/HYOR medium ([2]; 16 hours): 77%
- IC50 ([3]; Homo sapiens, MCF7, read-out: IC50 MCF-7/HYOR +TPi (10 μM)): 3 ± 1 nM
- IC50 ([3]; Homo sapiens, MCF7, read-out: IC50 MCF-7/HYOR As such): 420 ± 180 nM
- IC50 ([3]; Homo sapiens, MCF7, plasmocin 25 μg/ml, 1 day pretreatment, read-out: IC50 MCF-7/HYOR +plasmocin (25 μg/ml) 1 day prior to addition of test compounds): 18 ± 2.2 nM
- IC50 ([3]; Homo sapiens, MCF7, plasmocin 25 μg/ml, 3 days pretreatment, read-out: IC50 MCF-7/HYOR +plasmocin (25 μg/ml) 3 days prior to addition of test compounds): 3 ± 1 nM
- Ratio (1)/(2) MCF-7/HYOR [3]: 140
- Percent conversion of nucleoside to the free pyrimidine base, recombinant E. coli TP ([4]; 2 hours): 57%
- Percent conversion of nucleoside to the free pyrimidine base, recombinant E. coli TP ([4]; 16 hours): 63%

Structure (SMILES): O=c1[nH]c(=O)n([C@H]2C[C@H](O)[C@@H](CO)O2)cc1C(F)(F)F [TFT, 5-trifluorothymidine]
- % of drug-derived radiolabel, In medium, Base [1]: 56.7%
- % of drug-derived radiolabel, In medium, Nucleoside [1]: 23.3%
- % of drug-derived radiolabel, In the cytosol of the cells, 5′-diphosphate [1]: 0.6%
- % of drug-derived radiolabel, In the cytosol of the cells, 5′-monophosphate [1]: 6.1%
- % of drug-derived radiolabel, In the cytosol of the cells, 5′-triphosphate [1]: 0.6%
- % of drug-derived radiolabel, In the cytosol of the cells, Nucleoside/nucleobase [1]: 11.0%
- % of drug-derived radiolabel, Incorporatio into DNA/RNA [1]: 1.8%
- Share incorporated into the nucleic acids in the presence of TPi [1]: 66%
- Increase of 5′-monophosphate levels in the presence of TPi [1]: 2.7 fold
- Percent conversion of nucleoside to the free pyrimidine base in MCF-7/HYOR medium ([2]; 2 hours): 8%
- Percent conversion of nucleoside to the free pyrimidine base in MCF-7/HYOR medium ([2]; 16 hours): 55%
- Ratio (1)/(2) MCF-7/HYOR [3]: 33
- IC50 ([3]; M. hyorhinis-infected MCF-7, no TPi, no plasmocin, read-out: IC50 MCF-7/HYOR As such): 6000 ± 3190 nM
- IC50 ([3]; M. hyorhinis-infected MCF-7, with 10 μM TPi, read-out: IC50 MCF-7/HYOR +TPi (10 μM)): 180 ± 70 nM
- IC50 ([3]; plasmocin 25 μg/ml, 1 day pretreatment, read-out: IC50 MCF-7/HYOR +plasmocin (25 μg/ml) 1 day prior to addition of test compounds): 450 ± 90 nM
- IC50 ([3]; plasmocin 25 μg/ml, 3 days pretreatment, read-out: IC50 MCF-7/HYOR +plasmocin (25 μg/ml) 3 days prior to addition of test compounds): 190 ± 60 nM
- Percent conversion of nucleoside to the free pyrimidine base, recombinant E. coli TP ([4]; 2 hours): 48%
- Percent conversion of nucleoside to the free pyrimidine base, recombinant E. coli TP ([4]; 16 hours): 85%
